# Measurements published in patent publication US10813929B2, “Treating cancer with ATR inhibitors” (VERTEX PHARMACEUTICALS INCORPORATED, priority 2011, dated 2020).
# Legend:
# [1] = test system: MRCS fibroblasts; assay: Cell viability assay (Alamar Blue) with irradiation, normal cells; type: cell-based; settings: VE-821 for 96 h with or without 4 Gy; viability after 8 days; FIG. 1 panel B
# Description: PSN-1, Panc-1, MiaPaCa-2 pancreatic cancer cell lines and MRCS fibroblasts were treated with increasing concentrations of VE-821 for 96 h combined with or without 4 Gy radiation at 1 h after VE-821 addition. Cell viability was measured after 8 days and shown as normalized to DMSO-treated cells. MiaPaCa-2, PSN-1, Panc1 and MRCS cells (5×104) were plated in 96-well plates and after 4 h treated with increasing concentrations of VE-821 at 1 h before irradiation with a single dose of 6 Gy. Medium was replaced 96 h post-irradiation at which point viability was measured using the using the Alamar Blue assay (Resazurin substrate, SIGMA). Cells were allowed to proliferate and cell viability was again analyzed at day 8 for the different treatment conditions. Cell viability and surviving fraction were normalized to the untreated (control) group.
# [2] = test system: HeLa, PSN1, MiaPaca cells; assay: Radiosensitivity assays of FIGS. 8 to 12 (clonogenic survival, foci, cell cycle); type: cell-based
# Description: Small scale clonogenic survival assays were performed on HeLa cells treated with the different ATR inhibitors at increasing concentrations followed by irradiation at 6 Gy. Data is plotted as decrease in clonogenic survival in relation to the DMSO-treated cells for both irradiated (SF 6 Gy, pink line) and unirradiated cells (plating efficiency, PE; blue line). A high degree of increased radiosensitivity can be seen as a large decrease in survival after irradiation accompanied by a small decrease in unirradiated survival at a specific drug concentration.
# FIG. 9. […] PSN1 and MiaPaca cells were plated at low densities, treated with the drugs indicated and assessed for clonogenic survival. • B) Clonogenic survival of PSN1, MiaPaca, and MRCS cells pretreated with Compounds 821, 822, 823 and 824 drugs followed by irradiation. Cells were plated at low densities, treated with drugs indicated 1 h prior to irradiation and assessed for clonogenic survival.
# MiaPaca cells were plated at low densities and drug was added at various time points in relation to the 4 Gy radiation treatment: 1 h prior to IR, 5 min after IR, 2 h or 4 h after IR; and removed at various time points. […] Clonogenic survival was assessed after 14 days. […]
# FIG. 11. […] The percentage of cells containing more than a certain number of foci was quantitated. • B) Time course of DNA damage foci. […]
# [3] = test system: MiaPaCa pancreatic cancer xenograft; assay: MiaPaCa pancreatic cancer xenograft model with ionizing radiation; type: in vivo; settings: FIG. 13
# [4] = test system: panel of 35 human lung cancer cell lines; assay: Lung cancer cell screen, CellTiter-Glo cell viability assay; type: cell-based; settings: 96 hours
# Description: All cell lines were seeded in 30 μl of tissue culture medium containing 10% FBS into 384-well opaque-bottom assay plates. The seeding density was based on the logarithmic growth rate of each cell line. After 24 hours, compound stock solutions were added to each well to afford a matrix consisting of 5 concentrations for VE-822 and 6 concentrations for chemotoxics. Each well contains either, agent alone or a combination of both agents. The final concentration range for VE-822 was 25 nM-2 μM. The concentration ranges for the chemotoxics were as follows: Etoposide, 10 nM-10 μM; Gemcitabine, 0.16 nM-160 nM; Cisplatin, 20 nM-20 μM; Oxaliplatin, 40 nM-40 μM; Irinotecan (SN-38), 0.12 nM-120 nM. The cells were then incubated for 96 hours at 37° C. in an atmosphere of 5% CO2 and 95% humidity.
# This assay measures the number of viable cells in a culture based on the quantitation of ATP, which is present in metabolically active cells.
# CellTiter-Glo Reagent (Promega, Madison, Wis., USA) was prepared according to the manufacturer's instructions and added 96 hours after compound addition (25 μl/well) to measure cell viability. Luminescence signal was measured with the PHERAStarFS (BMG Labtech, Cary, N.C., USA) automated plate reader. […]
# Raw luminescence CellTiter-Glo (CTG) values were normalized to the mean CTG value for the negative control DMSO-treated samples on each assay plate. […]
compound,measurement,setting,value
CS(=O)(=O)c1ccc(-c2cnc(N)c(C(=O)Nc3ccccc3)n2)cc1 [VE-821],radiosensitisation of normal cells (cell viability),[1],not normal cells
same,sensitization of cancer cells to radiation therapy,[2],sensitize cancer cells to radiation therapy
CNCc1ccc(-c2cc(-c3nc(-c4ccc(S(=O)(=O)C(C)C)cc4)cnc3N)on2)cc1 [VE-822],antitumor effects of ionizing radiation (tumor volume over time),[3],enhances the antitumor effects of ionizing radiation
same,synergy with chemotoxics across lung cancer cell lines,"[4]; maximum shift in IC50 of each chemotoxic, FIG. 16",Synergizes with Chemotoxics
same,synergy (shift in IC50 of chemotoxic) in lung cancer cell lines,"[4]; with cisplatin, etoposide, gemcitabine, oxaplatin and irinotecan, FIG. 17",greater than 3 fold
same,sensitization of cancer cells to radiation therapy,[2],sensitize cancer cells to radiation therapy
